Source: patent US6143769A, “Phenylacetic acid benzylamides” (Karl Thomae GmbH, priority 1983, dated 2000)
Like-named read-outs stand apart in the source and are kept apart here.

Columns and labels:
Assay type in all cases: in vivo
mice [1] = experiment: Acute toxicity of compound N, single oral dose, mice; conditions: 14 days
Description: The toxic effect of a single dose of compound N administered orally (suspended in 1% methyl cellulose) was tested in male and female mice of our own strain weighing from 20-26 g over an observation period of 14 days.

blood glucose = experiment: Test for hypoglycemic activity in fasted female rats (oral); conditions: Rattus norvegicus, po, read-out: Change in glucose content compared with control
Description: Blood samples were taken immediately before the administration of the test compound and 1, 2, 3 and 4 hours afterwards, in each case from the retroorbital Venous plexus. 50 μl of each sample were deproteinated with 0.5 ml of 0.33 N perchloric acid and centrifuged. The glucose in the supernatant fluid was measured using the hexokinase method with the aid of an analytical photometer. The statistical evaluation was made using the t-test according to Student with p=0.05 as the limit of significance.

mice [2] = experiment: Acute toxicity, single oral dose 2,000 mg/kg, mice; conditions: 2,000 mg/kg p.o., 5 male and 5 female mice, 14 days

`CCOc1cc(CC(=O)NC(CC(C)C)c2ccccc2N2CCCCC2)ccc1C(=O)O` (racemic) [N, 2-ethoxy-4-[N-{1-(2-piperidino-phenyl)-3-methyl-1-butyl}-aminocarbonylmethyl]-benzoic acids] was tested, and the Deaths (mice [1]; 1000 mg/kg p.o.) was 0 out of 6 animals died, the Approximate acute toxicity (mice [1]; p.o.) was greater than 1000 mg/kg and the change in vivo at 0.1 mg/kg (blood glucose; 1 h) was -38%. The change in vivo at 0.1 mg/kg (blood glucose; 2 h) was -44%, the change in vivo at 0.1 mg/kg (blood glucose; 3 h) was -41% and the change in vivo at 0.1 mg/kg (blood glucose; 4 h) was -40%.
With `CCOc1cc(CC(=O)NC(c2ccccc2)c2ccccc2N2CCCCC2)ccc1C(=O)O` (stereo not drawn) [D, 2-ethoxy-4-[N-(α-phenyl-2-piperidino-benzyl)-aminocarbonylmethyl]-benzoic acid] the Deaths (mice [2]) was “only one animal in this group died”, the change in vivo at 1 mg/kg (blood glucose; 1 h) was -42% and the change in vivo at 1 mg/kg (blood glucose; 2 h) was -54%. It also gave a change in vivo at 1 mg/kg (blood glucose; 3 h) of -37% and a change in vivo at 1 mg/kg (blood glucose; 4 h) of -34%.
